Assay [1] concerns human breast MDA-MB-361 tumor cell line. Briefly: In vitro cell culture growth assay (MTS), MDA-MB-361. The settings on record: Homo sapiens, MDA-MB-361, 72 h. It is filed as cell-based.
The next assay has as its target PI3K-γ (Homo sapiens, UniProt P48736). The experiment in a line: PI3K-gamma fluorescence polarization assay. The settings on record: read-out: IC50 PI3Kγ.
The next assay has as its target Human mTOR (FLAG-TOR) (Homo sapiens, UniProt P42345). Briefly: mTOR kinase assay (DELFIA format, purified enzyme). It is filed as biochemical.
The next assay addresses PI3K-α (Homo sapiens, UniProt P42336). Briefly: PI3K-alpha fluorescence polarization assay. The settings on record: read-out: IC50 PI3Kα. For orientation: In fluorescence polarisation assays a small probe gives low polarisation when free and higher when bound to something large.
In assay [2] the test system is human prostate PC3-mm2 tumor cell line. Briefly: In vitro cell culture growth assay (MTS), PC3-mm2. The class given is cell-based. Conditions: Homo sapiens, PC3MM2, 72 h.
Setting [3] is: MTS cell growth assay, three days after drug treatment, read-out: IC50 MDA-MB-361.
[4] abbreviates: MTS cell growth assay, three days after drug treatment, read-out: IC50 PC3-mm2.
Where [5] appears, read: read-out: IC50 MDA-MB-361, MTS cell growth assay, three days after drug treatment.
[6] abbreviates: read-out: IC50 PC3-mm2, MTS cell growth assay, three days after drug treatment.

Each structure is given as a SMILES string. Where “and” joins values, the source holds several entries; their conditions need not be identical. Equal entries are not always repeated. Structures can show the parent of a compound that is named as a salt. Where two headings read alike, the source gives them in different places.

Human mTOR (FLAG-TOR), sequence (P42345 1360-2549 limits assumed): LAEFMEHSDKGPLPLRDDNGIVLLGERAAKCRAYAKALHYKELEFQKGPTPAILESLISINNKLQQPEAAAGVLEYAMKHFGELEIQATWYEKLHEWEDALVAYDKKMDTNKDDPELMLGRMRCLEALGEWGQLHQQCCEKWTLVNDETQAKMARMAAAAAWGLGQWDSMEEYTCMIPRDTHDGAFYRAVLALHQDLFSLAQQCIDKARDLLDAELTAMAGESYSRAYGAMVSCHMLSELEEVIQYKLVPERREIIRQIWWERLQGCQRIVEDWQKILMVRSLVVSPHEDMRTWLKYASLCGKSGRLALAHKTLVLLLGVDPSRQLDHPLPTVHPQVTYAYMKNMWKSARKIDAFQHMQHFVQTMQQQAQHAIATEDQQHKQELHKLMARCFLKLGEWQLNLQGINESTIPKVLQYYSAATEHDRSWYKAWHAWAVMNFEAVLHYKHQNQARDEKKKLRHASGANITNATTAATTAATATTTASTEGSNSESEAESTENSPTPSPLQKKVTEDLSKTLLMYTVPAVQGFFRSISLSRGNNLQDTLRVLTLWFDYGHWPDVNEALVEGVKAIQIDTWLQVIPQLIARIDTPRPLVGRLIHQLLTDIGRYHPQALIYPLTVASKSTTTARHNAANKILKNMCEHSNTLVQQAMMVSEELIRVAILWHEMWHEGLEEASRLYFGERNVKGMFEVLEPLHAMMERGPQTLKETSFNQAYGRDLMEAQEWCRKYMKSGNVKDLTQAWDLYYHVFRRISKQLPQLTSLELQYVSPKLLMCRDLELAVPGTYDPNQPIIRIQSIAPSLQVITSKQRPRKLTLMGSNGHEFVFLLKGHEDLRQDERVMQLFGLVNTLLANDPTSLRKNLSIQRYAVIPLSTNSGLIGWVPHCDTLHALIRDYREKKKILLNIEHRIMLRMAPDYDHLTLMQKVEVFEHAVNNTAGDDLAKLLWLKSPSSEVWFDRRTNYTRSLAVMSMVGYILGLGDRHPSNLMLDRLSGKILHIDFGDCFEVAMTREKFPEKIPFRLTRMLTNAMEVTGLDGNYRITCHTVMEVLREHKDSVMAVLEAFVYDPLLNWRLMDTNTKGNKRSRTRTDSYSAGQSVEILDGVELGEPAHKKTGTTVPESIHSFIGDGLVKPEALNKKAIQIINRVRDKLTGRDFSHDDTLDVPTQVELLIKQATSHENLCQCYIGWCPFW
PI3K-α, sequence (P42336 whole entry, species assumed): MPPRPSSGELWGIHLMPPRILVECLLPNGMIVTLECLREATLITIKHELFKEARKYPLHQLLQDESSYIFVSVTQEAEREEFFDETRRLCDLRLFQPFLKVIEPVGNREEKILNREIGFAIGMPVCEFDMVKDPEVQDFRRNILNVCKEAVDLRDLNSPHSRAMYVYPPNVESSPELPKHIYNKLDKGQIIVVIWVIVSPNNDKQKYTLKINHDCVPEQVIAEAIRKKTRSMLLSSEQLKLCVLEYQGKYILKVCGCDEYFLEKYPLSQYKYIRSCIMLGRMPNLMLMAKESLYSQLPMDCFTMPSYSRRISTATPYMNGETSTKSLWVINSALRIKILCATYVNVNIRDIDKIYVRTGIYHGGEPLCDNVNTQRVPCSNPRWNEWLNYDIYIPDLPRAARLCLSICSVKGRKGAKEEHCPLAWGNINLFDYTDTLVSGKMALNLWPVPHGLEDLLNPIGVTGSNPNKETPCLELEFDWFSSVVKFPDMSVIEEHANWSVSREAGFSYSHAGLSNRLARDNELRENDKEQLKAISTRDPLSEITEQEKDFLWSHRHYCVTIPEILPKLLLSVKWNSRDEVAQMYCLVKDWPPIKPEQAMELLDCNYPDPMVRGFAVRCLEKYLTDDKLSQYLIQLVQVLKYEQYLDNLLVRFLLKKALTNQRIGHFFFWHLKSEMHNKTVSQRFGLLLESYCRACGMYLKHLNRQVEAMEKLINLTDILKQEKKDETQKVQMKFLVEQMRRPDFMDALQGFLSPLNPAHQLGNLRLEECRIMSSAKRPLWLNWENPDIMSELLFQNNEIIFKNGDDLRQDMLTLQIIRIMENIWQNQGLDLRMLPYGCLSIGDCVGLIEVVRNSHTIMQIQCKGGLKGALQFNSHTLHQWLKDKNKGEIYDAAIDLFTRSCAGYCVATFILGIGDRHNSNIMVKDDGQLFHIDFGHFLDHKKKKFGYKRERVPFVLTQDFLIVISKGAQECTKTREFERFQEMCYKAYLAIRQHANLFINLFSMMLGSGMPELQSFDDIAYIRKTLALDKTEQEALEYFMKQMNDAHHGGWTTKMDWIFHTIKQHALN
PI3K-α, sequence (P27986 whole entry partner, species assumed): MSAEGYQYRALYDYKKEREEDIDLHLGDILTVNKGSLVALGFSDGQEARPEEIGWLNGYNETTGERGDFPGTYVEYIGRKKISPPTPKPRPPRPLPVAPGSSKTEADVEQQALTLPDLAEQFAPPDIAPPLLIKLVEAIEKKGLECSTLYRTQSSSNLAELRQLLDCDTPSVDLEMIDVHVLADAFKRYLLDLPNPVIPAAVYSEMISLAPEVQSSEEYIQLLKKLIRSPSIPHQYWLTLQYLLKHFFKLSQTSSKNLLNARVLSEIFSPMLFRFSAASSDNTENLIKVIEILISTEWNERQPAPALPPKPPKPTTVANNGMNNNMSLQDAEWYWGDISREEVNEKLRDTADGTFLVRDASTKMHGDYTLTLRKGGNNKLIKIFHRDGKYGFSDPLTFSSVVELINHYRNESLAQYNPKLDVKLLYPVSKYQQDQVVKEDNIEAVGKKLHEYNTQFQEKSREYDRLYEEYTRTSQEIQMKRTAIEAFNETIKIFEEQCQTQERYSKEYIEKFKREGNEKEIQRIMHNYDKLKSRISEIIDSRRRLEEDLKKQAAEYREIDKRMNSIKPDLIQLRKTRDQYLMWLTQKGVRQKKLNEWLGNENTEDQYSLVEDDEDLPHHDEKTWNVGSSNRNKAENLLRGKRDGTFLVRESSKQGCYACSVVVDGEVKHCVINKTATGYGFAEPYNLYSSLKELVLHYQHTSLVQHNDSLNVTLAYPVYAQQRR
PI3K-γ, sequence (P48736 whole entry, species assumed): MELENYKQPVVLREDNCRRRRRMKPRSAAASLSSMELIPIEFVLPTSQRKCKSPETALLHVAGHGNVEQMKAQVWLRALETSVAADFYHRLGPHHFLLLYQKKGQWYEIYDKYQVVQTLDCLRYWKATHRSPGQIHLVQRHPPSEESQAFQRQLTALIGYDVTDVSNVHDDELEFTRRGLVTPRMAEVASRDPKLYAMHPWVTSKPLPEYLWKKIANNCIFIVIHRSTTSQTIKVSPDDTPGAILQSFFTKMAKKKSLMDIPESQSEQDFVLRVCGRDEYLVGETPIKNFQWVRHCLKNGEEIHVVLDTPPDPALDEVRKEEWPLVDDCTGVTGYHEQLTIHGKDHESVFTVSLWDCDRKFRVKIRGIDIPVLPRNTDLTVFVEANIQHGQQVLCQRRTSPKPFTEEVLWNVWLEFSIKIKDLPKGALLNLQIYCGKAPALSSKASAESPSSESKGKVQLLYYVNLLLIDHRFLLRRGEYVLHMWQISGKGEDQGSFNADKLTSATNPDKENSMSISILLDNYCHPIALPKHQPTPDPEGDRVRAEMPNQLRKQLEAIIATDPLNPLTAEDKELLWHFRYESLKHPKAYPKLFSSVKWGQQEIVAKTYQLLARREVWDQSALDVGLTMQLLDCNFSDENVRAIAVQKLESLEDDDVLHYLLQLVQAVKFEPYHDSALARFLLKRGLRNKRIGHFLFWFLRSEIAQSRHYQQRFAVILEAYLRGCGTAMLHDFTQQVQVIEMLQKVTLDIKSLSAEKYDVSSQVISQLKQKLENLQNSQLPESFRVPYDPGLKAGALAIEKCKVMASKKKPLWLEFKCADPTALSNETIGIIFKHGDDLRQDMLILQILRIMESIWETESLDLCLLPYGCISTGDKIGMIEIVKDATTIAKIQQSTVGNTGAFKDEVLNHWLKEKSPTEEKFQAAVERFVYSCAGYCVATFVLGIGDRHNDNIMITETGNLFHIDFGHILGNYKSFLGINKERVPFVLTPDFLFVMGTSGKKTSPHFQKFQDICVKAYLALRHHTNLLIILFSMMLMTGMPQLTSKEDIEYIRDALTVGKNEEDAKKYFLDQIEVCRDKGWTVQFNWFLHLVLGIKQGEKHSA

`CN1CCN(c2ccc(NC(=O)Nc3ccc(-c4nc(N5CCOCC5)nc(N5C6CCC5COC6)n4)cc3)cc2)CC1` [Example 43, 1-[4-(4-methylpiperazin-1-yl)phenyl]-3-{4-[4-morpholin-4-yl-6-(3-oxa-8-azabicyclo[3.2.1]oct-8-yl)-1,3,5-triazin-2-yl]phenyl}urea]: the IC50 in assay [1] (MTS cell growth assay, three days after drug treatment, MDA-MB-361 cells, read-out: IC50 MDA-MB-361) is 35.8 nM; in assay [1] (setting [3]), 35.8 nM; on PI3K-γ, 35 nM; at PI3K-γ (listed as 229), 70 nM; on PI3K-γ (listed as 678), 45.3 nM; on Human mTOR (FLAG-TOR) (read-out: IC50 mTOR), 0.77 nM and 1.65 nM and 1.17 nM. Besides, the IC50 at PI3K-α was 28 nM; on PI3K-α (listed as 229), 19 nM; on PI3K-α (listed as 678), 21.3 nM; in assay [2] (MTS cell growth assay, three days after drug treatment, PC3-mm2 cells, read-out: IC50 PC3-mm2) it was 40 nM; in assay [2] (setting [4]), 40 nM.

`O=C(Nc1ccc(-c2nc(N3CCOCC3)nc(N3CC4CCC(C3)O4)n2)cc1)Nc1cccnc1` [Example 47, 1-{4-[4-morpholin-4-yl-6-(8-oxa-3-azabicyclo[3.2.1]oct-3-yl)-1,3,5-triazin-2-yl]phenyl}-3-pyridin-3-ylurea]: the IC50 in assay [1] (setting [3]) was 116 nM; at PI3K-γ, 52 nM; at Human mTOR (FLAG-TOR) (read-out: IC50 mTOR) it was 1.6 nM; on PI3K-α, 13 nM; in assay [2] (setting [4]) it was 95 nM.

With `Cc1cc(NC(=O)Nc2ccc(-c3nc(N4CCOCC4)nc(N4CCOCC4)n3)cc2)ccn1` [Example 49, 1-[4-(4,6-dimorpholin-4-yl-1,3,5-triazin-2-yl)phenyl]-3-(2-methylpyridin-4-yl)urea], the IC50 was 84 nM in assay [1] (setting [3]); 21 nM on PI3K-γ; 10 nM and 8.9 nM on Human mTOR (FLAG-TOR) (read-out: IC50 mTOR); 3 nM at PI3K-α; 79 nM in assay [2] (setting [4]).

As for `O=C(Nc1ccc(CCO)cc1)Nc1ccc(-c2nc(N3CCOCC3)nc(N3CCOCC3)n2)cc1` [Example 50, 1-[4-(4,6-dimorpholin-4-yl-1,3,5-triazin-2-yl)phenyl]-3-[4-(2-hydroxyethyl)phenyl]urea], the IC50 in assay [1] (setting [5]) was determined as 36 nM; on PI3K-γ, 21 nM; on Human mTOR (FLAG-TOR) (read-out: IC50 mTOR), 2 nM; at PI3K-α, 1 nM; in assay [2] (setting [6]), 39 nM.

On to `O=C(Nc1ccc(CO)cc1)Nc1ccc(-c2nc(N3CCOCC3)nc(N3CCOCC3)n2)cc1` [Example 51, 1-[4-(4,6-dimorpholin-4-yl-1,3,5-triazin-2-yl)phenyl]-3-[4-(hydroxymethyl)phenyl]urea], for which the IC50 was under 30 nM in assay [1] (setting [3]); 15 nM on PI3K-γ; 1.9 nM at Human mTOR (FLAG-TOR) (read-out: IC50 mTOR); 1 nM at PI3K-α; under 30 nM in assay [2] (setting [4]).

As to `O=C(Nc1ccc(-c2nc(N3CCOCC3)nc(N3CCOCC3)n2)cc1)Nc1ccc(C(F)(F)F)cc1` [Example 53, 1-[4-(4,6-dimorpholin-4-yl-1,3,5-triazin-2-yl)phenyl]-3-[4-(trifluoromethyl)phenyl]urea], the IC50 in assay [1] (setting [3]) was 662 nM; at PI3K-γ it was 403 nM; at Human mTOR (FLAG-TOR) (read-out: IC50 mTOR), 24 nM and 18 nM; on PI3K-α, 45 nM; in assay [2] (setting [4]), 987 nM.

`O=C(Nc1ccc(O)cc1)Nc1ccc(-c2nc(N3CCOCC3)nc(N3CCOCC3)n2)cc1` [Example 54, 1-[4-(4,6-dimorpholin-4-yl-1,3,5-triazin-2-yl)phenyl]-3-(4-hydroxyphenyl)urea]: the half-maximal inhibitory concentration (IC50) in assay [1] (setting [3]) turned out to be 133 nM; on PI3K-γ it was 88 nM; at Human mTOR (FLAG-TOR) (read-out: IC50 mTOR), 4.75 nM; on PI3K-α, 10 nM; in assay [2] (setting [4]), 214 nM.

On to `CC(O)c1cccc(NC(=O)Nc2ccc(-c3nc(N4CCOCC4)nc(N4CCOCC4)n3)cc2)c1` (centres unmarked) [Example 57, 1-[4-(4,6-dimorpholin-4-yl-1,3,5-triazin-2-yl)phenyl]-3-[3-(1-hydroxyethyl)phenyl]urea], for which the IC50 in assay [1] (setting [3]) came to 119 nM; at PI3K-γ, 74 nM; at Human mTOR (FLAG-TOR) (read-out: IC50 mTOR), 16.5 nM; at PI3K-α, 8 nM; in assay [2] (setting [4]), 187 nM.

With `COC(=O)c1ccc(NC(=O)Nc2ccc(-c3nc(N4CCOCC4)nc(N4CCOCC4)n3)cc2)cc1` [Example 58, methyl 4-({[4-(4,6-dimorpholin-4-yl-1,3,5-triazin-2-yl)phenyl]carbamoyl}amino)benzoate], the IC50 stood at 115 nM in assay [1] (setting [5]); 85 nM at PI3K-γ; 2.5 nM on Human mTOR (FLAG-TOR) (read-out: IC50 mTOR); 13 nM on PI3K-α; 45 nM in assay [2] (setting [6]).

In the case of `O=C(Nc1ccccc1)Nc1ccc(-c2nc(OC3CCOCC3)nc(N3CCOCC3)n2)cc1` [Example 60, 1-{4-[4-morpholin-4-yl-6-(tetrahydro-2H-pyran-4-yloxy)-1,3,5-triazin-2-yl]phenyl}-3-phenylurea], the half-inhibitory concentration (IC50) in assay [1] (setting [3]) was found to be 83 nM; at PI3K-γ, 36 nM; at Human mTOR (FLAG-TOR) (read-out: IC50 mTOR) it was 1.8 nM; on PI3K-α it was 5 nM; in assay [2] (setting [4]), 92 nM.

On to `O=C(Nc1ccc(-c2nc(OC3CCOCC3)nc(N3CCOCC3)n2)cc1)Nc1cccnc1` [Example 61, 1-{4-[4-morpholin-4-yl-6-(tetrahydro-2H-pyran-4-yloxy)-1,3,5-triazin-2-yl]phenyl}-3-pyridin-3-ylurea], for which the IC50 came to 48 nM in assay [1] (setting [3]); 32 nM at PI3K-γ; 0.76 nM on Human mTOR (FLAG-TOR) (read-out: IC50 mTOR); 9 nM at PI3K-α; 23 nM in assay [2] (setting [4]).

Regarding `O=C(Nc1ccc(CO)cc1)Nc1ccc(-c2nc(OC3CCOCC3)nc(N3CCOCC3)n2)cc1` [Example 62, 1-[4-(hydroxymethyl)phenyl]-3-{4-[4-morpholin-4-yl-6-(tetrahydro-2H-pyran-4-yloxy)-1,3,5-triazin-2-yl]phenyl}urea], the half-inhibitory concentration (IC50) in assay [1] (setting [3]) stood at 27 nM; at PI3K-γ, 24 nM; on Human mTOR (FLAG-TOR) (read-out: IC50 mTOR), 0.68 nM; on PI3K-α, 2 nM; in assay [2] (setting [4]) it was 34 nM.

As for `Cc1cc(NC(=O)Nc2ccc(-c3nc(OC4CCOCC4)nc(N4CCOCC4)n3)cc2)ccn1` [Example 63, 1-(2-methylpyridin-4-yl)-3-{4-[4-morpholin-4-yl-6-(tetrahydro-2H-pyran-4-yloxy)-1,3,5-triazin-2-yl]phenyl}urea], the IC50 in assay [1] (setting [3]) stood at 69 nM; on PI3K-γ it was 36 nM; on Human mTOR (FLAG-TOR) (read-out: IC50 mTOR) it was 1.95 nM; at PI3K-α, 5 nM; in assay [2] (setting [4]) it was 62 nM.

`CC(=O)c1cccc(NC(=O)Nc2ccc(-c3nc(OC4CCOCC4)nc(N4CCOCC4)n3)cc2)c1` [Example 65, 1-(3-acetylphenyl)-3-{4-[4-morpholin-4-yl-6-(tetrahydro-2H-pyran-4-yloxy)-1,3,5-triazin-2-yl]phenyl}urea]: the IC50 was determined as 151 nM in assay [1] (setting [3]); 83 nM on PI3K-γ; 5.05 nM on Human mTOR (FLAG-TOR) (read-out: IC50 mTOR); 15 nM at PI3K-α; 267 nM in assay [2] (setting [4]).

Consider `CN(C)c1ccc(NC(=O)Nc2ccc(-c3nc(OC4CCOCC4)nc(N4CCOCC4)n3)cc2)cc1` [Example 66, 1-[4-(dimethylamino)phenyl]-3-{4-[4-morpholin-4-yl-6-(tetrahydro-2H-pyran-4-yloxy)-1,3,5-triazin-2-yl]phenyl}urea], for which the IC50 amounted to 59 nM in assay [1] (setting [3]); 30 nM at PI3K-γ; 1.65 nM on Human mTOR (FLAG-TOR) (read-out: IC50 mTOR); 7 nM on PI3K-α; 66 nM in assay [2] (setting [4]).

On to `O=C(Nc1ccc(C(=O)O)cc1)Nc1ccc(-c2nc(N3CCOCC3)nc(N3CCOCC3)n2)cc1` [Example 67, 4-[3-{4-(4,6-dimorpholino-1,3,5-triazin-2-yl)phenyl}ureido]benzoic acid], for which the half-maximal inhibitory concentration (IC50) was 816 nM in assay [1] (setting [5]); 48 nM at PI3K-γ; 1.45 nM on Human mTOR (FLAG-TOR) (read-out: IC50 mTOR); 6 nM on PI3K-α; 28 nM in assay [2] (setting [6]).

For `CN(C)CCNC(=O)c1ccc(NC(=O)Nc2ccc(-c3nc(N4CCOCC4)nc(N4CCOCC4)n3)cc2)cc1` [Example 68, N-(2-(dimethylamino)ethyl)-4-(3-(4-(4,6-dimorpholino-1,3,5-triazin-2-yl)phenyl)ureido)benzamide], the IC50 in assay [1] (setting [3]) is under 3 nM; on PI3K-γ it was 7 nM; on Human mTOR (FLAG-TOR) (read-out: IC50 mTOR), 0.57 nM; at PI3K-α it was 0.3 nM; in assay [2] (setting [6]) it was 11 nM.

`CN1CCN(C(=O)c2ccc(NC(=O)Nc3ccc(-c4nc(N5CCOCC5)nc(N5CCOCC5)n4)cc3)cc2)CC1` [Example 69, 1-(4-(4,6-dimorpholino-1,3,5-triazin-2-yl)phenyl)-3-(4-(4-methylpiperazine-1-carbonyl)phenyl)urea hydrochloride]: the IC50 turned out to be 10 nM in assay [1] (setting [3]); 8 nM at PI3K-γ; 0.85 nM on Human mTOR (FLAG-TOR) (read-out: IC50 mTOR); 0.4 nM on PI3K-α; 13 nM in assay [2] (setting [4]).

Consider `CN(C)CCN(C)C(=O)c1ccc(NC(=O)Nc2ccc(-c3nc(N4CCOCC4)nc(N4CCOCC4)n3)cc2)cc1` [Example 71, N-(2-(dimethylamino)ethyl)-4-(3-(4-(4,6-dimorpholino-1,3,5-triazin-2-yl)phenyl)ureido)-N-methylbenzamide hydrochloride], for which the 50% inhibitory concentration (IC50) was under 9.8 nM in assay [1] (setting [3]); 8 nM on PI3K-γ; 0.67 nM against Human mTOR (FLAG-TOR) (IC50 mTOR); 0.4 nM on PI3K-α; 18.3 nM in assay [2] (setting [4]).

The IC50 is the point on the concentration scale where inhibition reaches its midpoint.

The values above are taken from patent US20090304692A1, “TRIAZINE COMPOUNDS AS PI3 KINASE AND MTOR INHIBITORS” (Wyeth, priority 2008, published 2009).
